“Also recorded” adds a separate entry of the source. Like-named read-outs stand apart in the source and are kept apart here.
B1: Bst-I: wild type, natural form of Bacillus stearothermophilus DNA polymerase (protein, UniProt P52026 1-876, looked up)
DNA polymerase I: MKNKLVLIDGNSVAYRAFFALPLLHNDKGIHTNAVYGFTMMLNKILAEEQPTHILVAFDAGKTTFRHETFQDYKGGRQQTPPELSEQFPLLRELLKAYRIPAYELDHYEADDIIGTMAARAEREGFAVKVISGDRDLTQLASPQVTVEITKKGITDIESYTPETVVEKYGLTPEQIVDLKGLMGDKSDNIPGVPGIGEKTAVKLLKQFGTVENVLASIDEIKGEKLKENLRQYRDLALLSKQLAAICRDAPVELTLDDIVYKGEDREKVVALFQELGFQSFLDKMAVQTDEGEKPLAGMDFAIADSVTDEMLADKAALVVEVVGDNYHHAPIVGIALANERGRFFLRPETALADPKFLAWLGDETKKKTMFDSKRAAVALKWKGIELRGVVFDLLLAAYLLDPAQAAGDVAAVAKMHQYEAVRSDEAVYGKGAKRTVPDEPTLAEHLVRKAAAIWALEEPLMDELRRNEQDRLLTELEQPLAGILANMEFTGVKVDTKRLEQMGAELTEQLQAVERRIYELAGQEFNINSPKQLGTVLFDKLQLPVLKKTKTGYSTSADVLEKLAPHHEIVEHILHYRQLGKLQSTYIEGLLKVVHPVTGKVHTMFNQALTQTGRLSSVEPNLQNIPIRLEEGRKIRQAFVPSEPDWLIFAADYSQIELRVLAHIAEDDNLIEAFRRGLDIHTKTAMDIFHVSEEDVTANMRRQAKAVNFGIVYGISDYGLAQNLNITRKEAAEFIERYFASFPGVKQYMDNIVQEAKQKGYVTTLLHRRRYLPDITSRNFNVRSFAERTAMNTPIQGSAADIIKKAMIDLSVRLREERLQARLLLQVHDELILEAPKEEIERLCRLVPEVMEQAVTLRVPLKVDYHYGPTWYDAK

Tests used:
Bst-II DNA polymerase [1] = molecular target: T1, Bst-II DNA polymerase (Geobacillus stearothermophilus, UniProt P52026, A297E/A304V/A338V/A377V/A406D/A433V/A505S/D300E/D309E/D325E/D402N/D540E/D696E/D751E/E459Q/E464D/E476K/E631P/E632L/E667D/F710Y/G298E/G324E/G362A/G483A/G678D/H329D/H417K/H573N/H596R/H691Q/K356Q/K494N/L346M/L461F/L630T/N487E/P355S/P441Q/P480A/Q479H/Q512R/R341H/R467N/R472Q/R516Q/R676Q/R816K/R819Q/R846E/S306V/S373A/S812A/T369S/T436S/T508A/T536V/V307I/V323M/V391A/V410I/V437L/V514I/V537I/V598D/V619A/V692L/V813A); type: biochemical, Bacillus stearothermophilus; details: for effect on 5′-3′ polymerization activity of the polymerase: 65° C.
T1 construct: made in house
T1 sequence (P52026 other isoform, or with tags, fused parts or gaps with the stated changes): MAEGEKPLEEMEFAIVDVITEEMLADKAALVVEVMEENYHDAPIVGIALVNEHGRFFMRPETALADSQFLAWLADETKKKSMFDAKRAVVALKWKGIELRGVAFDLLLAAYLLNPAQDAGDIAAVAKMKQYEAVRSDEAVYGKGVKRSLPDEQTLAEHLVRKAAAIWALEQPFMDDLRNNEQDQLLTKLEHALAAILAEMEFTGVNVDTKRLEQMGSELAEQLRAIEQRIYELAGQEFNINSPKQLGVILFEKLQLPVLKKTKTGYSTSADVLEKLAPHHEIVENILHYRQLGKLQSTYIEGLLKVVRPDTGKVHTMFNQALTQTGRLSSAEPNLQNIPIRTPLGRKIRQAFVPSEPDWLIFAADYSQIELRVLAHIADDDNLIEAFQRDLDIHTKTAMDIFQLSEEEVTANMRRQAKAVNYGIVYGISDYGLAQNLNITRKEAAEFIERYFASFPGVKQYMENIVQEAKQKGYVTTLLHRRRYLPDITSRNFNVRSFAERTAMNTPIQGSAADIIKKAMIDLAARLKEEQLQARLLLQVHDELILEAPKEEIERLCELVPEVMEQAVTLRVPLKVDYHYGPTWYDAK
Description: The remaining activity of Bst-II DNA polymerase (produced according to U.S. Pat. No. 6,165,765) in the presence of different concentrations of Glycerol was determined as follows:
(a) In a series of numbered 0.5 ml microcentrifuge tubes were added the following:
The mixtures above were firstly evaporated by Speed-Vacuum, then varying final concentrations of glycerol in each reaction mixture were achieved by adding an appropriate amount of a glycerol stock solution to the above microcentrifuge tubes as indicated below.
(b) All these tubes were incubated at 65° C. for 30 minutes. Then each of the reaction mixtures was pipetted onto a DE-81 filter. After all of the fluid has evaporated, the amount of radioactivity on each filter was measured with scintillation and recorded as X1. Thereafter, the filters were washed three times with 0.3 M Na2HPO4 solution at room temperature, 10 minutes each times, dried at room temperature and then the amount of radioactivity on each filter was measured again and recorded as X2. Incorporation ratio=X2/X1. [formula]

Bst-II DNA polymerase [2] = molecular target: T1, Bst-II DNA polymerase; test: Low-temperature cycle primer extension with Bst-II at different glycerol concentrations (agarose gel); type: biochemical, Bacillus stearothermophilus
Description: Bst-II DNA polymerase was used for the study. […]
(§1) The reaction products were run on a 1% agarose gel for electrophoresis and stained by ethidium bromide.
Four different sets of templates and primers were selected representing varying lengths of the DNA segments to be amplified:
The low temperature cycle extension was carried out as follows:
(a) To a 0.2 ml microcentrifuge tube were added.
(b) The mixture above was firstly evaporated by Speed-Vacuum, then the following were added to each microcentrifuge tube containing the evaporated reagents with different sets of template and primers to achieve a final concentration of 35% glycerol and 15% glycerol in the reaction mixture, respectively.
(c) All the microcentrifuge tubes with the reaction mixture were subjected to low temperature cycling as follows:
The reaction products were run on a 1% agarose gel for electrophoresis and stained by ethidium bromide. The reaction products from the mixture containing 35% glycerol were loaded in lane 1, and the reaction products from the mixture containing 15% glycerol were loaded in lane 2.

rice genome BAC B414f7 = test: Low-temperature cycle extension of 17 mer and 30 mer primers with different DNA polymerases (agarose gel); type: biochemical; details: Bst system, 15% glycerol, 70° C./37° C./50° C., 35 cycles
Description: The polymerases used were Bst-I (wild type produced according to U.S. Pat. No. 5,834,254), Bst-II, and Bca (TaKaRa Co.). The Klenow fragment (Sigma Chemical Co.) was used as a thermolabile DNA polymerase for comparison (Iakobashvili and Lapidot).
The template used was rice genome BAC B414f7.
The two pairs of primers used were: […]
The following reaction system (referred to hereafter as the Bst system) was used.
(a) In a 0.2 ml microcentrifuge tube were added:
(b) The microcentrifuge tubes were subjected to the following temperature cycling.
as §1
In addition, the method of using a reaction mixture containing 4.5 M proline and 17% glycerol in Tris-HCl buffer as recommended by Iakobashvili and Lapidot was also adopted for the reactions with Klenow fragment as the DNA polymerase (hereafter referred to as the Iakobashvili and Lapidot system). The reaction products were also run parallel to those obtained with the Bst system, and illustrated as follows in FIG. 4.

[3] = higher concentrations (greater than about 35%)
[4] = low concentration, not exceeding / up to about 20% (v/v)

Row | Molecule | loss of original polymerization activity (Bst-II DNA polymerase [1]; glycerol 40% (v/v)) | effect on 5′-3′ polymerization activity of the polymerase (Bst-II DNA polymerase [1]; [3]) | effect on 5′-3′ polymerization activity of the polymerase (Bst-II DNA polymerase [1]; [4]) | amplification products on gel (Bst-II DNA polymerase [2]; 15% glycerol, target products 250 bp to 2 Kb) | amplification products on gel (Bst-II DNA polymerase [2]; 35% glycerol, target product 1 Kb and 2 Kb) | amplification products on gel (Bst-II DNA polymerase [2]; 35% glycerol, target product 250 bp or 400 bp) | amplification products on gel (Bst-II DNA polymerase [2]; 40% glycerol, template pBluescript(+), low or high template concentration, 70° C./45° C., 35 cycles) | amplification product from 17 mer and 30 mer primer extension (rice genome BAC B414f7)
1 | OCC(O)CO [glycerol] | ⅔ | detrimental inhibitory effect; also recorded: invariably suppressed this enzymatic activity | increased the enzymatic activity; also recorded: increase the sequence-specific DNA polymerization activity; also recorded: increased the 5′-3′ polymerization activity | specific amplification products | both specific and non-specific amplification products | no amplification products produced at all | non-specific amplification products of varying sizes | –
2 | OCCO [ethylene glycol] | – | detrimental inhibitory effect | increase the sequence-specific DNA polymerization activity | – | – | – | – | –
3 | B1 | – | – | – | – | – | – | – | generated specific amplification products

From patent US20030087237A1, “Low-temperature cycle extension of DNA with high polymerization specificity” (priority 2001, published 2003)
